Active and inactive are the calls of the source.
How the values were obtained:
[1] = target: T1, Sentrin-specific protease 1 (Homo sapiens, UniProt Q9P0U3); test: Dose response confirmation of small molecule inhibitors of the catalytic domain of the SUMO protease, SENP1 in a FRET assay.; type: functional; conditions: read-out: IC50_Mean
T1 sequence (Q9P0U3 whole entry): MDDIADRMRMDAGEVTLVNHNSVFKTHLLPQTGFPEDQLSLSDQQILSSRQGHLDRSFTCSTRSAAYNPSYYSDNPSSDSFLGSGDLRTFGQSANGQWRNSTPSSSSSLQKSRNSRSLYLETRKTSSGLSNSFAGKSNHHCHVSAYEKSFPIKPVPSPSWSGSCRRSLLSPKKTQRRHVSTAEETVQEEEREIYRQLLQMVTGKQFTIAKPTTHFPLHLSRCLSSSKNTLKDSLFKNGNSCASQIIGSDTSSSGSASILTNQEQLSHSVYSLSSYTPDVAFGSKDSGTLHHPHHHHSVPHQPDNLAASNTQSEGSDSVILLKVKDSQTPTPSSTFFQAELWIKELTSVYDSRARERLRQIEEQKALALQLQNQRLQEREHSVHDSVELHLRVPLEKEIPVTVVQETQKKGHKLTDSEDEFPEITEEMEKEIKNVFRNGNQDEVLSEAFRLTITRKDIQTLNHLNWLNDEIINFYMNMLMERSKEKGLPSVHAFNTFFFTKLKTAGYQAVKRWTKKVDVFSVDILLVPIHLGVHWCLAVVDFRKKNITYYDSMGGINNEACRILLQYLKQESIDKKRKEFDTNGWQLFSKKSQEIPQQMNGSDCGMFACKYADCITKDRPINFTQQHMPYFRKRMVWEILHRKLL

[2] = target: T1, Sentrin-specific protease 1; test: potency of human SENP1 inhibitors, dose response, biochemical, kinetic FRET (AID 651697); type: functional; conditions: read-out: IC50_Mean
[3] = CRF-BP/CRF-R2 complex antagonists, dose response, cell-based, uHTS hits, 384-well (AID 651639); type: functional, Homo sapiens; conditions: read-out: IC50_Mean
[4] = target: T2, Corticotropin-releasing factor receptor 2/Corticotropin-releasing factor-binding protein (Homo sapiens, UniProt P24387+Q13324); test: activators of CRF receptor 2 with binding protein – uHTS hits, confirmation (AID 602473); type: functional; conditions: read-out: EC50_Mean
T2 sequence (Q13324 whole entry): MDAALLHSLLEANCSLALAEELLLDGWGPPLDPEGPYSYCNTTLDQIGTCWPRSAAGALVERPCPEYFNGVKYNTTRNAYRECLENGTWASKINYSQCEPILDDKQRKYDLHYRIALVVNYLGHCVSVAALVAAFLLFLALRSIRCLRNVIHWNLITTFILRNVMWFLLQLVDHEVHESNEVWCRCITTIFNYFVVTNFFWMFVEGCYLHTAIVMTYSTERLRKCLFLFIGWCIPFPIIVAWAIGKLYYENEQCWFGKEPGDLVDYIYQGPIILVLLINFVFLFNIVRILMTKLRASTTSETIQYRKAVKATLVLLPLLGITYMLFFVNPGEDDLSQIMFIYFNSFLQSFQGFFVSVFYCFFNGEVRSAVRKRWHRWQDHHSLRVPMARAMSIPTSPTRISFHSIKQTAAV
T2 sequence (P24387 whole entry): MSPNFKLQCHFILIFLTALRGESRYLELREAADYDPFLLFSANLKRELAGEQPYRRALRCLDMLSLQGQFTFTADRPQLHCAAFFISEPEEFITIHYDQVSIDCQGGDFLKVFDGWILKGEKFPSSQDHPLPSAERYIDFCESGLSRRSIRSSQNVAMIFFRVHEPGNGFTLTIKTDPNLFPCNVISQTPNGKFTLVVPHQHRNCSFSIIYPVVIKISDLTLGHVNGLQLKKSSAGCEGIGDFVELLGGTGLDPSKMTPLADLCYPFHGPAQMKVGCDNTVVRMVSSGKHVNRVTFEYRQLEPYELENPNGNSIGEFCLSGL

[5] = target: T2, Corticotropin-releasing factor receptor 2/Corticotropin-releasing factor-binding protein; test: Dose Response confirmation of uHTS hits for small molecule antagonists of the CRF-binding protein and CRF-R2 receptor complex.; type: functional; conditions: read-out: IC50_Mean
[6] = target: T3, Probable nicotinate-nucleotide adenylyltransferase (Staphylococcus aureus (strain N315), UniProt P65502); type: functional, Staphylococcus aureus subsp. aureus N315; conditions: read-out: IC50_Mean;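 on IC50 Mean: confirmatory dose-response retesting of NadD inhibitor hits first found in an ultra-high-throughput screen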
T3 sequence (P65502 whole entry): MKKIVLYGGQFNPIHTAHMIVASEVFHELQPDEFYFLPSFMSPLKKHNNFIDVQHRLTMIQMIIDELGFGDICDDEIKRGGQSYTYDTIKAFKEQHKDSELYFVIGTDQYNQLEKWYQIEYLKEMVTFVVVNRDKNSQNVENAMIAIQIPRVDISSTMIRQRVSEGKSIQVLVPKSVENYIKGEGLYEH

[7] = target: T3, Probable nicotinate-nucleotide adenylyltransferase; type: functional, Staphylococcus aureus subsp. aureus N315

## CCOC(=O)c1c(O)nc2ccc(Cl)c3c2c1-c1ccccc1C3=O
[1]
  IC50: 2.75 µM (active)
[2]
  IC50: 18.3 µM (active)

## Cc1cccc(CSc2ccc3nnc(-c4cccs4)n3n2)c1
[3]
  IC50: 2.57 µM (active)
[4]
  EC50: > 53 µM (inactive)
[5]
  IC50: 32.2 µM (active)

## C=CCOCCN1C(=O)C2C(c3ccccc3)C=CC(c3ccccc3)C2C1=O (centres undefined)
[1]
  IC50: 4.3 µM (active)
[2]
  IC50: 6.05 µM (active)

## Cc1cc2[nH]c(=O)c(=O)[nH]c2cc1S(=O)(=O)N1CCN(c2cccc(C(F)(F)F)c2)CC1
[6]
  IC50: 29.2 µM (active)
[7]
  IC50: 9.57 µM (active)

— ChEMBL document CHEMBL1201862, “PubChem BioAssay data set” (2004)
